Results on four compounds are retold here after PMC4313117, “Elabela-Apelin Receptor Signaling Pathway is Functional in Mammalian Systems” (Scientific Reports, 2015).

The subject of one assay is APJ. Conditions: zebrafish studies; cited from earlier work. From the text: ELA deficiency leads to severe defects in heart development and lymphogenesis. ...
A further assay relates to mouse aortic rings. Kind of assay: Vasorelaxation of U46619-contracted mouse aortic rings. Also noted: species or system mouse (C57BL/6). An excerpt:
Changes in tension were expressed as the percentage decrease in reference to precontraction tension. […] Values are means ± SEM. (n = 5–10). **p < 0.01, compared to aortas with endothelium at the same concentration points of the compound.
Aortas were isolated from 8–10 weeks male wild-type C57BL/6 mice, cut into 3-mm rings and mounted in organ chambers (PowerLab, AD Instruments, CO, USA) in Kreb's buffer as described previously. The contractile response was elicited by vasoconstrictor U46619 (30 nM) to produce contraction. […] In some preparations, the endothelium was mechanically removed from denuded arteries by gentle rubbing off the intimal surface with a wooden stick.

Another assay has as its system HUVECs. Briefly: In vitro angiogenesis (tubular formation) assay in HUVECs. Type of assay: cell-based, human. Conditions: for increase in number of branch points: HUVECs on Geltrex, counted after 10 hr; for increase in number of branch points / increase in tubular formation, APJ-overexpressing HUVECs: n = 5. An excerpt:
ELA is a secreted hormone and expressed in adult kidney and prostate, and may, therefore, circulate in blood. Since ELA is required for normal development of cardiovascular system, blood vessel could be a target of ELA action. Vascular tube formation assay is a well-used in vitro study to assess angiogenic factors and conditions in which vascular cells, [e.g. human umbilical vascular endothelial cells (HUVECs)], can form tube-like structures under pro-angiogenic conditions in culture wells coated with Geltrex containing extra-cellular matrix. The number of branch points is used as an indicator for the strength of angiogenic stimuli.
Figure 4 Stimulation of tubule-like structure by ELA-APJ signaling. […] (B), Reverse transcription PCR of human APJ expression of HUVECs infected with APJ or APJ siRNA lentiviral constructs.
Tubular formation assay for angiogenesis was conducted in 96-well plates which were coated with 50 μl of Geltrex (Life Technologies, A14133-02) and left for polymerization by incubation for 1 hr at 37°C. […] Quantification of the tubular formation was performed after 10 hr of culture by calculating the number of branching point formed in each well under an inverted phase contrast photomicroscope (Olympus IX50), as described.

In assay [1] the test system is mouse heart failure model of coronary artery ligation. As to conditions: cited from earlier work. An excerpt: Apelin was considered the only endogenous ligand for APJ since isolation of the apelin peptide. Apelin is expressed in multiple tissues including adipose tissue, heart, vasculature, brain and kidney, whereas APJ is more broadly expressed in tissues such as heart, blood vessels and adipose tissue. […] At the receptor level, APJ is a GPCR coupled to Gi and/or Gq[15][16]. Activation of APJ results in biochemical responses i ... || Recently, the therapeutic potential of apelin as a reagent for heart failure has been increasingly recognized.

Assay [2] concerns vascular tone; blood pressure. Conditions: cited from earlier work. Here is the method:
The aortic rings were induced to contraction with vasoconstrictor U46619 (final concentration, 30 nM).

Another assay relates to human saphenous vein. As to conditions: cited from earlier work.

As to `CSCC[C@H](NC(=O)[C@@H](NC(=O)[C@H](CC(C)C)NC(=O)[C@H](CC(N)=O)NC(=O)[C@@H](NC(=O)[C@@H]1CCCN1C(=O)[C@H](CCCNC(=N)N)NC(=O)[C@@H](N)CCC(N)=O)C(C)C)[C@@H](C)O)C(=O)N[C@@H](CCCNC(=N)N)C(=O)N[C@@H](CCCNC(=N)N)C(=O)N[C@@H](CCCCN)C(=O)N[C@@H](CC(C)C)C(=O)N[C@@H](CCCNC(=N)N)C(=O)N[C@@H](CCCCN)C(=O)N[C@@H](Cc1c[nH]cn1)C(=O)N[C@@H](CC(N)=O)C(=O)N[C@H]1CSSC[C@@H](C(=O)N[C@@H](CCSC)C(=O)N2CCC[C@H]2C(=O)N[C@@H](CC(C)C)C(=O)N[C@@H](Cc2c[nH]cn2)C(=O)N[C@@H](CO)C(=O)N[C@@H](CCCNC(=N)N)C(=O)N[C@H](C(=O)N2CCC[C@H]2C(=O)N[C@@H](Cc2ccccc2)C(=O)N2CCC[C@H]2C(=O)O)C(C)C)NC(=O)[C@H](CCCNC(=N)N)NC(=O)[C@H](CCCNC(=N)N)NC(=O)[C@H](CCC(N)=O)NC(=O)[C@H](CC(C)C)NC1=O` [ELA], in the assay with APJ, the “binding and activation of APJ” value was “binds and activates APJ”. In the assay with mouse aortic rings (1 mM L-NAME for 30 min, then U46619, followed by ELA), the “relaxation with L-NAME pretreatment” value is “No significant difference was observed between the L-NAME-treated and non-treated vessels”. The “maximum relaxation, endothelium-intact vessels” value in the assay on mouse aortic rings (U46619 30 nM precontraction, ELA 10^−9 to 10^−6 M cumulative, n = 5–10) came to 73.7%. Also, the “decrease in relaxation in denuded vs intact vessels” value in the assay on mouse aortic rings (endothelium-denuded, ELA at corresponding concentrations, n = 5–10) is on record as ~ 20%. The “tubular formation, APJ-knock down HUVECs” value in the assay on HUVECs (ELA 0.1 μM, APJ siRNA) is reported as “not effective in inducing the formation of tubular structures”. Also, the “increase in number of branch points” value is on record as 71.9% in the assay on HUVECs (ELA 0.1 μM), 222.8% with HUVECs (ELA 0.5 μM) and 266.7% with HUVECs (ELA 1 μM). Further, the “increase in tubular formation, APJ-overexpressing HUVECs” value was 63.3% with HUVECs (ELA 0.1 μM, compared to empty vector control cells with ELA) and 190.2% in the assay with HUVECs (ELA 0.1 μM, compared to empty vector control cells without ELA).
`CC(=O)OCC[N+](C)(C)C` [acetylcholine]: the “relaxation by acetylcholine (control of endothelium removal and NOS inhibition)” value in the assay with mouse aortic rings (endothelium-denuded or L-NAME-treated arteries) is reported as “inability of acetylcholine to relax the arteries”.
As for apelin, the “cardiac protection, contractility, infarction size, stem cell mobilization” value in assay [1] (mouse heart failure model of coronary artery ligation) was “have cardiac-protective effect and can increase heart contractility, reduce infarction size and promote cardiac stem cell mobilization to the infarct area”. In addition, in assay [1] (various animal models, infusion), the cardioprotective effect result is on record as “appears to have cardioprotective effect in various animal models”. Besides, in assay [2], the vascular tone entry is given as “relax vascular tone” and the vasodilatory effect result was “a vasodilatory effect of apelin is reported”. In assay [2] (no ref number printed at this statement), the blood pressure result is “lower blood pressure”. Also, the “vasoconstriction in denuded vessels” value in assay [2] (vessels denuded of endothelium) was “vasoconstriction is also noted”. In the assay with human saphenous vein, the vasoconstriction entry was “vasoconstriction is also noted in human saphenous vein”.
Take apelin-13: in the assay on mouse aortic rings (apelin-13, denuded vs intact vessels, n = 5–10), the “reduction of relaxing effect by removal of endothelium” value is given as 48%. Also, the “relaxation, denuded vessels” value in the assay on mouse aortic rings (apelin-13, endothelium-denuded, U46619 30 nM precontraction, n = 5–10) was determined as 31%. In the assay with mouse aortic rings (apelin-13 at 10^−6 M, U46619 30 nM precontraction, n = 5–10), the “maximum relaxation, endothelium-intact vessels” value is on record as 79%.
